Data published in US20230391845A1, “GLP-1, GIP AND GLUCAGON RECEPTOR TRIPLE AGONISTS” (priority 2020, published 2023).
Like-named read-outs stand apart in the source and are kept apart here. *1 amine or outer side, *2 acyl side, *3 side chain or, on linkers, in order; H or OH if unused. Where a SMILES comes first, the peptide text is derived from it. Side-chain parts run from the residue outwards. [ ]: non-standard residue; d: D form. The star is where a group is joined. C20 diacid = O=C(O)CCCCCCCCCCCCCCCCCCC(=O)*; C18 diacid = O=C(O)CCCCCCCCCCCCCCCCC(=O)*; γGlu = O=C(O)[C@H](CCC(=O)[*:2])N[*:1]; εLys = N[C@@H](CCCCN[*:1])C(=O)[*:2]; Palmitoyl = CCCCCCCCCCCCCCCC(=O)*; AEEA = NCCOCCOCC(=O)O; Aib = CC(C)(N)C(=O)O

Key:
[1] = molecular target: T1, human GIP receptor (Homo sapiens, UniProt P48546); experiment: In vitro functional potency (CRE luciferase; whole cells), human GIPR; assay type: cell-based; conditions: BHK CRE luc2P hGIPR whole cells, read-out: hGIPR CRE Luc EC50
T1 construct: expressed in transfected cells; host or cells: BHK cells (parent line BHKTS13) containing CRE luciferase
T1 sequence (P48546 22-466): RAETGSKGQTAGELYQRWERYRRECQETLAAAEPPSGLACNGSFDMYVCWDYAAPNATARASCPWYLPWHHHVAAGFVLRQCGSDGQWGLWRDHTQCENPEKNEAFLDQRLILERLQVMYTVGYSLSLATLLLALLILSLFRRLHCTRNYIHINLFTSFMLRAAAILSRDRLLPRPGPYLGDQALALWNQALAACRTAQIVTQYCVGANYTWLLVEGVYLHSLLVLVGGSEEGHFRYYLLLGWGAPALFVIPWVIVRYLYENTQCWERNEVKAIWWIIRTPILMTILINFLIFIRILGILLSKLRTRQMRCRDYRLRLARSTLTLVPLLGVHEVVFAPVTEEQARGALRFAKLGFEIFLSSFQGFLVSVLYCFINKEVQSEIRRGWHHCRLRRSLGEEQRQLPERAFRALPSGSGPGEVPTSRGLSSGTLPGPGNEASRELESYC
Description: The purpose of this example is to test the functional activity, or potency, of the compounds in vitro at the human and mouse GLP-1, GIP, and Gcg receptors. The in vitro functional potency is the measure of target receptor activation in a whole cell assay.
In vitro functional potency was determined by measuring the response of the target receptor in a reporter gene assay in individual cell lines. The assay was performed in stably transfected BHK cell lines that expresses one of the following G-protein coupled receptors: human GLP-1 receptor, human GIP receptor, human Gcg receptor, mouse GLP-1 receptor, mouse GIP receptor, or mouse Gcg receptor; and where each cell line contains the DNA for the cAMP response element (CRE) coupled to a promoter and the gene for firefly luciferase (CRE luciferase). When the respective receptor is activated, it results in the production of cAMP, which in turn results in expression of the luciferase protein. When assay incubation is completed, luciferase substrate (luciferin) is added resulting in the enzymatic conversion of luciferin to oxyluciferin and producing bioluminescence. The luminescence is measured as the readout for the assay.
The cells lines used in these assays were BHK cells with BHKTS13 as a parent cell line. The cell lines were derived from a clone containing the CRE luciferase element and were established by further transfection with the respective receptor to obtain the relevant cell line.
The cells were cultured at 37° C. with 5% CO2 in Cell Culture Medium. They were aliquoted and stored in liquid nitrogen. The cells were kept in continuous culture and were seeded out the day before each assay.
GLP-1R and GcgR Cell Culture Medium consisted of DMEM medium with 10% FBS, 500 µg/mL G418, and 300 µg/mL hygromycin. GIPR Cell Culture Medium consisted of DMEM medium with 10% FBS, 400 µg/mL G418, and 300 µg/mL hygromycin. Assay Buffer consisted of DMEM w/o phenol red, 10 mM Hepes, 1× Glutamax, 1% ovalbumin, and 0.1% Pluronic F-68.
• 1) Cells were plated at 5000 cells/well and incubated overnight in the assay plate. • 2) Cells were washed once in DPBS. • 3) Stocks of the test compounds and reference compounds in concentrations ranging from 100-300 pM were diluted 1:150 in Assay Buffer.
The data from the microtiter plate reader was first regressed in an Excel in order to calculate the x-axis, log scale concentrations based on the individual test compound's stock concentration and the dilutions of the assay. […] The software performs a non-linear regression (log(agonist) vs response). A minimum of two replicates was measured for each sample. The reported values are averages of the replicates.

[2] = molecular target: T2, human GLP-1 receptor (Homo sapiens, UniProt P43220); experiment: In vitro functional potency (CRE luciferase; whole cells), human GLP-1R; assay type: cell-based; conditions: BHK CRE luc2P hGLP-1R whole cells; Table 2; read-out: hGLP-1R CRE Luc EC50
T2 construct: expressed in transfected cells; host or cells: BHK cells (parent line BHKTS13) containing CRE luciferase
T2 sequence (P43220 24-463): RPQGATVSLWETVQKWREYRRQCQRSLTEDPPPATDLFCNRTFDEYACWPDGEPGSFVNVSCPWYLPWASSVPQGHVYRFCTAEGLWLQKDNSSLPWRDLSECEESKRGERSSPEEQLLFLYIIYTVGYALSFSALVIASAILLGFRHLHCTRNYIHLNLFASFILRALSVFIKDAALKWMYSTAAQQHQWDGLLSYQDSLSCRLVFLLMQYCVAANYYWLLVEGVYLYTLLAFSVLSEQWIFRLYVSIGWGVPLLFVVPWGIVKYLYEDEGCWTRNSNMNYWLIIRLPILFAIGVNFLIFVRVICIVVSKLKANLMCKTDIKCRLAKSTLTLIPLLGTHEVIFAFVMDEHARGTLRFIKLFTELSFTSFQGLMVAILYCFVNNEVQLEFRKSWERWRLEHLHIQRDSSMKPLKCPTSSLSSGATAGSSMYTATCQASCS

Row | SMILES | EC50 ([1]; Table 2) | EC50 [2] | EC50 ([1]; Table 1, position of substituent varied)
1 | CC[C@H](C)[C@H](NC(=O)[C@H](CO)NC(=O)[C@H](Cc1ccc(O)cc1)NC(=O)[C@H](CC(=O)O)NC(=O)[C@H](CO)NC(=O)[C@@H](NC(=O)[C@H](Cc1ccccc1)NC(=O)[C@@H](NC(=O)CNC(=O)[C@H](CCC(N)=O)NC(=O)C(C)(C)NC(=O)[C@@H](N)Cc1ccc(O)cc1)[C@@H](C)O)[C@@H](C)O)C(=O)N[C@@H](Cc1ccc(O)cc1)C(=O)N[C@@H](CC(C)C)C(=O)N[C@@H](CCC(=O)O)C(=O)N[C@@H](CCCCNC(=O)COCCOCCNC(=O)COCCOCCNC(=O)CC[C@H](NC(=O)CCCCCCCCCCCCCCCCCCC(=O)O)C(=O)O)C(=O)N[C@@H](CCC(N)=O)C(=O)N[C@@H](C)C(=O)N[C@@H](C)C(=O)NC(C)(C)C(=O)N[C@@H](CCC(=O)O)C(=O)N[C@@H](Cc1ccccc1)C(=O)N[C@H](C(=O)N[C@@H](CC(N)=O)C(=O)N[C@@H](Cc1c[nH]c2ccccc12)C(=O)N[C@@H](CC(C)C)C(=O)N[C@@H](CC(C)C)C(=O)N[C@@H](C)C(=O)NCC(=O)NCC(=O)N1CCC[C@H]1C(=O)N[C@@H](CO)C(=O)N[C@@H](CO)C(=O)NCC(=O)N[C@@H](C)C(=O)N1CCC[C@H]1C(=O)N1CCC[C@H]1C(=O)N1CCC[C@H]1C(=O)N[C@@H](CO)C(N)=O)C(C)C [Compound No. 15] (H-Y[Aib]QGTFTSDYSIYLEK([AEEA-AEEA-γGlu-C20 diacid])QAA[Aib]EFVNWLLAGGPSSGAPPPS-NH2) | 4.8 pM | 1.4 pM | –
2 | CC[C@H](C)[C@H](NC(=O)[C@H](CO)NC(=O)[C@H](Cc1ccc(O)cc1)NC(=O)[C@H](CC(=O)O)NC(=O)[C@H](CO)NC(=O)[C@@H](NC(=O)[C@H](Cc1ccccc1)NC(=O)[C@@H](NC(=O)CNC(=O)[C@H](Cc1c[nH]cn1)NC(=O)C(C)(C)NC(=O)[C@@H](N)Cc1c[nH]cn1)[C@@H](C)O)[C@@H](C)O)C(=O)N[C@@H](Cc1ccc(O)cc1)C(=O)N[C@@H](CC(C)C)C(=O)N[C@@H](CCC(=O)O)C(=O)N[C@@H](CCCCNC(=O)[C@@H](N)CCCCNC(=O)[C@@H](N)CCCCNC(=O)CC[C@H](NC(=O)CCCCCCCCCCCCCCCCCCC(=O)O)C(=O)O)C(=O)N[C@@H](CCC(N)=O)C(=O)N[C@@H](C)C(=O)N[C@@H](C)C(=O)NC(C)(C)C(=O)N[C@@H](CCC(=O)O)C(=O)N[C@@H](Cc1ccccc1)C(=O)N[C@H](C(=O)N[C@@H](CCC(N)=O)C(=O)N[C@@H](Cc1c[nH]c2ccccc12)C(=O)N[C@@H](CC(C)C)C(=O)N[C@@H](CC(C)C)C(=O)N[C@@H](CCC(=O)O)C(=O)NCC(=O)NCC(=O)N1CCC[C@H]1C(=O)N[C@@H](CO)C(=O)N[C@@H](CO)C(=O)NCC(=O)N[C@@H](C)C(=O)N1CCC[C@H]1C(=O)N1CCC[C@H]1C(=O)N1CCC[C@H]1C(=O)N[C@@H](CO)C(N)=O)C(C)C [Compound No. 22] (H-H[Aib]HGTFTSDYSIYLEK([εLys-εLys-γGlu-C20 diacid])QAA[Aib]EFVQWLLEGGPSSGAPPPS-NH2; N-terminus assumed) | 7.1 pM | 2 pM | –
3 | CC[C@H](C)[C@H](NC(=O)[C@H](CO)NC(=O)[C@H](Cc1ccc(O)cc1)NC(=O)[C@H](CC(=O)O)NC(=O)[C@H](CO)NC(=O)[C@@H](NC(=O)[C@H](Cc1ccccc1)NC(=O)[C@@H](NC(=O)CNC(=O)[C@H](Cc1c[nH]cn1)NC(=O)C(C)(C)NC(=O)[C@@H](N)Cc1c[nH]cn1)[C@@H](C)O)[C@@H](C)O)C(=O)N[C@@H](CC(C)C)C(=O)N[C@@H](CC(C)C)C(=O)N[C@@H](CCC(=O)O)C(=O)N[C@@H](CCCCNC(=O)[C@@H](N)CCCCNC(=O)[C@@H](N)CCCCNC(=O)CC[C@H](NC(=O)CCCCCCCCCCCCCCCCCCC(=O)O)C(=O)O)C(=O)N[C@@H](CCC(N)=O)C(=O)N[C@@H](C)C(=O)N[C@@H](C)C(=O)N[C@@H](CCC(=O)O)C(=O)N[C@@H](CCC(=O)O)C(=O)N[C@@H](Cc1ccccc1)C(=O)N[C@H](C(=O)N[C@@H](CCC(N)=O)C(=O)N[C@@H](Cc1c[nH]c2ccccc12)C(=O)N[C@@H](CC(C)C)C(=O)N[C@@H](CC(C)C)C(=O)N[C@@H](CCC(=O)O)C(=O)NCC(=O)NCC(=O)N1CCC[C@H]1C(=O)N[C@@H](CO)C(=O)N[C@@H](CO)C(=O)NCC(=O)N[C@@H](C)C(=O)N1CCC[C@H]1C(=O)N1CCC[C@H]1C(=O)N1CCC[C@H]1C(=O)N[C@@H](CO)C(=O)O)C(C)C [Compound No. 50] (H-H[Aib]HGTFTSDYSILLEK([εLys-εLys-γGlu-C20 diacid])QAAEEFVQWLLEGGPSSGAPPPS-OH) | 1.9 pM | – | –
4 | CC[C@H](C)[C@H](NC(=O)[C@H](CO)NC(=O)[C@H](Cc1ccc(O)cc1)NC(=O)[C@H](CC(=O)O)NC(=O)[C@H](CO)NC(=O)[C@@H](NC(=O)[C@H](Cc1ccccc1)NC(=O)[C@@H](NC(=O)CNC(=O)[C@H](Cc1c[nH]cn1)NC(=O)C(C)(C)NC(=O)[C@@H](N)Cc1c[nH]cn1)[C@@H](C)O)[C@@H](C)O)C(=O)N[C@@H](CC(C)C)C(=O)N[C@@H](CC(C)C)C(=O)N[C@@H](CCC(=O)O)C(=O)N[C@@H](CCCCNC(=O)[C@@H](N)CCCCNC(=O)[C@@H](N)CCCCNC(=O)CC[C@H](NC(=O)CCCCCCCCCCCCCCCCC(=O)O)C(=O)O)C(=O)N[C@@H](CCC(N)=O)C(=O)N[C@@H](C)C(=O)N[C@@H](C)C(=O)N[C@@H](CCC(=O)O)C(=O)N[C@@H](CCC(=O)O)C(=O)N[C@@H](Cc1ccccc1)C(=O)N[C@H](C(=O)N[C@@H](CCC(N)=O)C(=O)N[C@@H](Cc1c[nH]c2ccccc12)C(=O)N[C@@H](CC(C)C)C(=O)N[C@@H](CC(C)C)C(=O)N[C@@H](CCC(=O)O)C(=O)NCC(=O)NCC(=O)N1CCC[C@H]1C(=O)N[C@@H](CO)C(=O)N[C@@H](CO)C(=O)NCC(=O)N[C@@H](C)C(=O)N1CCC[C@H]1C(=O)N1CCC[C@H]1C(=O)N1CCC[C@H]1C(=O)N[C@@H](CO)C(=O)O)C(C)C [Compound No. 51] (H-H[Aib]HGTFTSDYSILLEK([εLys-εLys-γGlu-C18 diacid])QAAEEFVQWLLEGGPSSGAPPPS-OH) | 1.8 pM | – | –
5 | CC[C@H](C)[C@H](NC(=O)[C@H](CO)NC(=O)[C@H](Cc1ccc(O)cc1)NC(=O)[C@H](CC(=O)O)NC(=O)[C@H](CO)NC(=O)[C@@H](NC(=O)[C@H](Cc1ccccc1)NC(=O)[C@@H](NC(=O)CNC(=O)[C@H](Cc1c[nH]cn1)NC(=O)C(C)(C)NC(=O)[C@@H](N)Cc1c[nH]cn1)[C@@H](C)O)[C@@H](C)O)C(=O)N[C@@H](CC(C)C)C(=O)N[C@@H](CC(C)C)C(=O)N[C@@H](CCC(=O)O)C(=O)N[C@@H](CCCCNC(=O)[C@@H](N)CCCCNC(=O)[C@@H](N)CCCCNC(=O)CC[C@H](NC(=O)CCCCCCCCCCCCCCCCCCC(=O)O)C(=O)O)C(=O)N[C@@H](CCC(N)=O)C(=O)N[C@@H](C)C(=O)N[C@@H](C)C(=O)N[C@@H](CCC(N)=O)C(=O)N[C@@H](CCC(=O)O)C(=O)N[C@@H](Cc1ccccc1)C(=O)N[C@H](C(=O)N[C@@H](CCC(N)=O)C(=O)N[C@@H](Cc1c[nH]c2ccccc12)C(=O)N[C@@H](CC(C)C)C(=O)N[C@@H](CC(C)C)C(=O)N[C@@H](CCC(=O)O)C(=O)NCC(=O)NCC(=O)N1CCC[C@H]1C(=O)N[C@@H](CO)C(=O)N[C@@H](CO)C(=O)NCC(=O)N[C@@H](C)C(=O)N1CCC[C@H]1C(=O)N1CCC[C@H]1C(=O)N1CCC[C@H]1C(=O)N[C@@H](CO)C(=O)O)C(C)C [Compound No. 53] (H-H[Aib]HGTFTSDYSILLEK([εLys-εLys-γGlu-C20 diacid])QAAQEFVQWLLEGGPSSGAPPPS-OH) | 4.8 pM | – | –
6 | CCCCCCCCCCCCCCCC(=O)NCCCC[C@H](NC(=O)[C@H](CO)NC(=O)[C@@H]1CCCN1C(=O)[C@@H]1CCCN1C(=O)[C@@H]1CCCN1C(=O)[C@H](C)NC(=O)CNC(=O)[C@H](CO)NC(=O)[C@H](CO)NC(=O)[C@@H]1CCCN1C(=O)CNC(=O)CNC(=O)[C@H](C)NC(=O)[C@H](CC(C)C)NC(=O)[C@H](CC(C)C)NC(=O)[C@H](Cc1c[nH]c2ccccc12)NC(=O)[C@H](CC(N)=O)NC(=O)[C@@H](NC(=O)[C@H](Cc1ccccc1)NC(=O)[C@H](CCC(=O)O)NC(=O)C(C)(C)NC(=O)[C@H](C)NC(=O)[C@H](C)NC(=O)[C@H](CCC(N)=O)NC(=O)[C@H](CCCCN)NC(=O)[C@H](CC(=O)O)NC(=O)[C@H](CC(C)C)NC(=O)[C@H](Cc1ccc(O)cc1)NC(=O)[C@@H](NC(=O)[C@H](CO)NC(=O)[C@H](Cc1ccc(O)cc1)NC(=O)[C@H](CC(=O)O)NC(=O)[C@H](CO)NC(=O)[C@@H](NC(=O)[C@H](Cc1ccccc1)NC(=O)[C@@H](NC(=O)CNC(=O)[C@H](CCC(N)=O)NC(=O)C(C)(C)NC(=O)[C@@H](N)Cc1ccc(O)cc1)[C@@H](C)O)[C@@H](C)O)[C@@H](C)CC)C(C)C)C(N)=O [Compound No. 58, reference compound] (H-Y[Aib]QGTFTSDYSIYLDKQAA[Aib]EFVNWLLAGGPSSGAPPPSK(Palmitoyl)-NH2; N-terminus assumed) | – | – | 7.2 pM
